Data taken from US11078193B2 (priority 2014, dated 2021).
pEC50: −log10 of the molar value.

Legend:
HBV [1] = experiment: anti-HBV activity, HepG2.2.15 stable transfected cell line, HBV DNA from secreted virions by realtime PCR; type: cell-based; conditions: Hepatitis B virus, 144 h, HepG2.2.15 cells, 6 days of treatment
HBV [2] = experiment: anti HBV activity, HepG2.117 inducibly HBV producing cell line (Tet-off), intracellular HBV DNA by realtime PCR; type: cell-based; conditions: Hepatitis B virus, 72 h, HepG2.117 cells, 3 days of treatment
[3] = Cytotoxicity, HepG2 cells, Resazurin assay; type: cell-based; conditions: human
[4] = ATP based toxicity assay (ATPlite), HepG2 cell line; conditions: human, HepG2 cells, ATPlite (ATP levels)
Method: Alternatively, cytotoxicity was determined via an ATP-assay: The ATPlite kit from Perkin Elmer was used to assess compound cytotoxicity on the HepG2 cell line by determination of the ATP (adenosine triphosphate) levels. ATP is a marker for functional integrity and cell viability, because it is present in all metabolically active cells and any form of cell injury will result in a rapid decline in cellular ATP concentration. After compound incubation, 1 volume of ATPlite solution was added to the cells and the luminescence signal was measured.

CC[C@H](NS(=O)(=O)c1cc(C(=O)Nc2ccnc(C#N)c2)n(C)c1)C(F)(F)F [Compound 41, N-(2-cyano-4-pyridyl)-1-methyl-4-[[(1S)-1-(trifluoromethyl)propyl]-sulfamoyl]pyrrole-2-carboxamide]
pEC50 (HBV [1]): 7.15 | pEC50 (HBV [2]): 7.00 | CC50 at 4 days [3]: > 25000 nM

Cn1cc(S(=O)(=O)NC2(C(F)(F)F)CCC2)cc1C(=O)Nc1ccnc(C#N)c1 [Compound 42, N-(2-cyano-4-pyridyl)-1-methyl-4-[[1-(trifluoromethyl)cyclobutyl]-sulfamoyl]pyrrole-2-carboxamide]
pEC50 (HBV [1]): 7.30 | pEC50 (HBV [2]): 7.10 | CC50 at 4 days [3]: > 25000 nM

Cn1cc(S(=O)(=O)NC2(C(F)(F)F)CC2)c(Cl)c1C(=O)Nc1ccnc(Cl)c1 [Compound 45, 3-chloro-N-(2-chloro-4-pyridyl)-1-methyl-4-[[1-(trifluoromethyl)cyclopropyl]-sulfamoyl]pyrrole-2-carboxamide]
pEC50 (HBV [1]): 7.30 | pEC50 (HBV [2]): 7.40 | CC50 at 4 days [3]: > 25000 nM

CC[C@H](NS(=O)(=O)c1cc(C(=O)Nc2ccnc(Cl)c2)n(C)c1)C(F)(F)F [Compound 47, N-(2-chloro-4-pyridyl)-1-methyl-4-[[(1S)-1-(trifluoromethyl)propyl]-sulfamoyl]pyrrole-2-carboxamide]
pEC50 (HBV [1]): 7.22 | pEC50 (HBV [2]): 7.40 | CC50 at 4 days [3]: > 25000 nM

Cn1cc(S(=O)(=O)NC2(C(F)(F)F)CCC2)cc1C(=O)Nc1ccnc(Cl)c1 [Compound 48, N-(2-chloro-4-pyridyl)-1-methyl-4-[[1-(trifluoromethyl)cyclobutyl]-sulfamoyl]pyrrole-2-carboxamide]
pEC50 (HBV [1]): 7.22 | pEC50 (HBV [2]): 7.40 | CC50 at 4 days [3]: > 25000 nM

Cn1cc(S(=O)(=O)NC2(C(F)(F)F)CC2)cc1C(=O)Nc1ccnc(C#N)c1 [Compound 49, N-(2-cyano-4-pyridyl)-1-methyl-4-[[1-(trifluoromethyl)cyclopropyl]-sulfamoyl]pyrrole-2-carboxamide]
pEC50 (HBV [1]): 6.96 | pEC50 (HBV [2]): 6.96 | CC50 at 4 days [3]: > 25000 nM

C[C@@H](NS(=O)(=O)c1cn(C)c(C(=O)Nc2ccnc(C(F)(F)F)c2)c1F)C(C)(F)F [Compound 60, 4-[[(1R)-2,2-difluoro-1-methyl-propyl]sulfamoyl]-3-fluoro-1-methyl-N-[2-(trifluoromethyl)-4-pyridyl]pyrrole-2-carboxamide]
pEC50 (HBV [1]): 6.62 | pEC50 (HBV [2]): 7.40 | CC50 at 4 days [3]: > 25000 nM

Cn1cc(S(=O)(=O)NC2(C)CC(F)(F)C2)c(Cl)c1C(=O)Nc1ccnc(C#N)c1 [Compound 64, 3-chloro-N-(2-cyano-4-pyridyl)-4-[(3,3-difluoro-1-methyl-cyclobutyl)-sulfamoyl]-1-methyl-pyrrole-2-carboxamide]
pEC50 (HBV [1]): 7.70 | pEC50 (HBV [2]): 7.52 | CC50 at 4 days [3]: 23000 nM

Cn1cc(S(=O)(=O)NC2(C)CC(F)(F)C2)c(Cl)c1C(=O)Nc1ccnc(Cl)c1 [Compound 65, 3-chloro-N-(2-chloro-4-pyridyl)-4-[(3,3-difluoro-1-methyl-cyclobutyl)-sulfamoyl]-1-methyl-pyrrole-2-carboxamide]
pEC50 (HBV [1]): 7.70 | pEC50 (HBV [2]): 7.52 | CC50 at 4 days [3]: > 25000 nM

CC(C)NS(=O)(=O)c1cn(C)c(C(=O)Nc2ccnc(C(F)F)c2)c1F [Compound 82, N-[2-(difluoromethyl)-4-pyridyl]-3-fluoro-4-(isopropylsulfamoyl)-1-methyl-pyrrole-2-carboxamide]
pEC50 (HBV [1]): 7.15 | pEC50 (HBV [2]): 7.00 | CC50 at 4 days [3]: > 25000 nM

CC[C@@H](NS(=O)(=O)c1cn(C)c(C(=O)Nc2ccnc(C(F)F)c2)c1Cl)C(F)(F)F [Compound 85, 3-chloro-N-[2-(difluoromethyl)-4-pyridyl]-1-methyl-4-[[(1R)-1-(trifluoromethyl)propyl]sulfamoyl]pyrrole-2-carboxamide]
pEC50 (HBV [1]): 7.70 | pEC50 (HBV [2]): 7.40 | CC50 at 4 days [3]: 24000 nM

CC[C@@H](NS(=O)(=O)c1cn(C)c(C(=O)Nc2ccnc(C(F)F)c2)c1F)C(F)(F)F [Compound 87, N-[2-(difluoromethyl)-4-pyridyl]-3-fluoro-1-methyl-4-[[(1R)-1-(trifluoromethyl)propyl]sulfamoyl]pyrrole-2-carboxamide]
pEC50 (HBV [1]): 7.70 | pEC50 (HBV [2]): 7.52 | CC50 at 4 days [3]: > 25000 nM

C[C@@H](NS(=O)(=O)c1cn(C)c(C(=O)Nc2ccnc(C#N)c2)c1Cl)C(C)(F)F [Compound 96, 3-chloro-N-(2-cyano-4-pyridyl)-4-[[(1R)-2,2-difluoro-1-methyl-propyl]sulfamoyl]-1-methyl-pyrrole-2-carboxamide]
pEC50 (HBV [1]): 7.40 | pEC50 (HBV [2]): 7.40 | CC50 at 4 days [3]: > 25000 nM

Cn1cc(S(=O)(=O)NC2(C)CC(F)(F)C2)c(Cl)c1C(=O)Nc1ccnc(F)c1 [Compound 116, 3-chloro-4-[(3,3-difluoro-1-methyl-cyclobutyl)sulfamoyl]-N-(2-fluoro-4-pyridyl)-1-methyl-pyrrole-2-carboxamide]
pEC50 (HBV [1]): 6.68 | pEC50 (HBV [2]): 7.70 | CC50 at 4 days [3]: > 25000 nM

C[C@@H](NS(=O)(=O)c1cn(C)c(C(=O)Nc2ccnc(Cl)c2F)c1F)C(F)(F)F [Compound 118, N-(2-chloro-3-fluoro-4-pyridyl)-3-fluoro-1-methyl-4-[[(1R)-2,2,2-trifluoro-1-methyl-ethyl]sulfamoyl]pyrrole-2-carboxamide]
pEC50 (HBV [1]): 7.00 | pEC50 (HBV [2]): 8.00 | CC50 at 4 days [3]: > 25000 nM

C[C@@H](NS(=O)(=O)c1cn(C)c(C(=O)Nc2ccnc(Br)c2)c1F)C(C)(F)F [Compound 124, N-(2-bromo-4-pyridyl)-4-[[(1R)-2,2-difluoro-1-methyl-propyl]sulfamoyl]-3-fluoro-1-methyl-pyrrole-2-carboxamide]
pEC50 (HBV [1]): > 7.00 | pEC50 (HBV [2]): 8.00 | CC50 at 4 days [3]: > 25000 nM

C[C@@H](NS(=O)(=O)c1cn(C)c(C(=O)Nc2ccnc(Cl)c2F)c1F)C(C)(F)F [Compound 125, N-(2-chloro-3-fluoro-4-pyridyl)-4-[[(1R)-2,2-difluoro-1-methyl-propyl]sulfamoyl]-3-fluoro-1-methyl-pyrrole-2-carboxamide]
pEC50 (HBV [1]): > 7.00 | pEC50 (HBV [2]): 8.10 | CC50 at 4 days [3]: > 25000 nM

C[C@@H](NS(=O)(=O)c1cn(C)c(C(=O)Nc2cc(Cl)nc(Cl)c2)c1F)C(F)(F)F [Compound 126, N-(2,6-dichloro-4-pyridyl)-3-fluoro-1-methyl-4-[[(1R)-2,2,2-trifluoro-1-methyl-ethyl]sulfamoyl]pyrrole-2-carboxamide]
pEC50 (HBV [1]): 7.70 | pEC50 (HBV [2]): 7.70 | CC50 at 4 days [3]: > 25000 nM

C[C@@H](NS(=O)(=O)c1cn(C)c(C(=O)Nc2ccnc(C(C)(F)F)c2)c1F)C(F)(F)F [Compound 129, N-[2-(1,1-difluoroethyl)-4-pyridyl]-3-fluoro-1-methyl-4-[[(1R)-2,2,2-trifluoro-1-methyl-ethyl]sulfamoyl]pyrrole-2-carboxamide]
pEC50 (HBV [1]): 6.09 | pEC50 (HBV [2]): 6.40 | CC50 at 4 days [3]: > 25000 nM

Cn1cc(S(=O)(=O)NC2(C)CC(F)(F)C2)c(F)c1C(=O)Nc1cc(Cl)nc(Cl)c1 [Compound 136, N-(2,6-dichloro-4-pyridyl)-4-[(3,3-difluoro-1-methyl-cyclobutyl)sulfamoyl]-3-fluoro-1-methyl-pyrrole-2-carboxamide]
pEC50 (HBV [2]): 7.70 | CC50 at 4 days [4]: 9500 nM

Cc1cc(NC(=O)c2c(Cl)c(S(=O)(=O)N[C@H](C)C(F)(F)F)cn2C)cc(F)n1 [Compound 137, 3-chloro-N-(2-fluoro-6-methyl-4-pyridyl)-1-methyl-4-[[(1R)-2,2,2-trifluoro-1-methyl-ethyl]sulfamoyl]pyrrole-2-carboxamide]
pEC50 (HBV [1]): > 7.00 | pEC50 (HBV [2]): 7.70 | CC50 at 4 days [3]: > 25000 nM

C[C@@H](NS(=O)(=O)c1cn(C)c(C(=O)Nc2ccnc(C#N)c2F)c1Cl)C(F)(F)F [Compound 143, 3-chloro-N-(2-cyano-3-fluoro-4-pyridyl)-1-methyl-4-[[(1R)-2,2,2-trifluoro-1-methyl-ethyl]sulfamoyl]pyrrole-2-carboxamide]
pEC50 (HBV [1]): 6.74 | pEC50 (HBV [2]): 7.70 | CC50 at 4 days [3]: > 25000 nM

C[C@@H](NS(=O)(=O)c1cn(C)c(C(=O)Nc2ccnc(CF)c2)c1Cl)C(F)(F)F [Compound 145, 3-chloro-N-[2-(fluoromethyl)-4-pyridyl]-1-methyl-4-[[(1R)-2,2,2-trifluoro-1-methyl-ethyl]sulfamoyl]pyrrole-2-carboxamide]
pEC50 (HBV [2]): 7.10 | CC50 at 4 days [4]: > 25000 nM

Cn1cc(S(=O)(=O)NC2(C)CC(F)(F)C2)c(Cl)c1C(=O)Nc1ccnc(C#N)c1F [Compound 162, 3-chloro-N-(2-cyano-3-fluoro-4-pyridyl)-4-[(3,3-difluoro-1-methyl-cyclobutyl)sulfamoyl]-1-methyl-pyrrole-2-carboxamide]
pEC50 (HBV [2]): 7.70 | CC50 at 4 days [4]: > 25000 nM

Cn1cc(S(=O)(=O)NC2CCC2(F)F)c(F)c1C(=O)Nc1ccnc(Cl)c1 (stereo not drawn) [Compound 174, N-(2-chloro-4-pyridyl)-4-[(2,2-difluorocyclobutyl)sulfamoyl]-3-fluoro-1-methyl-pyrrole-2-carboxamide]
pEC50 (HBV [2]): 6.96 | CC50 at 4 days [4]: > 25000 nM

Cn1cc(S(=O)(=O)NC(C)(C)C(F)(F)F)c(F)c1C(=O)Nc1ccnc(C#N)c1 [Compound 188, N-(2-cyano-4-pyridyl)-3-fluoro-1-methyl-4-[(2,2,2-trifluoro-1,1-dimethyl-ethyl)sulfamoyl]pyrrole-2-carboxamide]
pEC50 (HBV [2]): 7.00 | CC50 at 4 days [4]: > 25000 nM

Cn1cc(S(=O)(=O)NC(C)(C)C(F)(F)F)c(F)c1C(=O)Nc1cc(F)nc(F)c1 [Compound 189, N-(2,6-difluoro-4-pyridyl)-3-fluoro-1-methyl-4-[(2,2,2-trifluoro-1,1-dimethyl-ethyl)sulfamoyl]pyrrole-2-carboxamide]
pEC50 (HBV [2]): 7.22 | CC50 at 4 days [4]: > 25000 nM
